Legend:
[1] = system: endogenous COX-2 activity in RAW 264.7 macrophage cells; assay: Confocal live-cell imaging of LPS-activated RAW 264.7 macrophages; type: cell-based, mouse; details: CoxFluor 10 μM, 4 h, LPS 1 μg/mL, BSO 200 μM
Procedure: Confocal Fluorescence Live-Cell Imaging of Lipopolysaccharide-activated RAW 264.7 Macrophages. The surface exposed substrate of 4-well chambered cover glasses was coated with R&D Systems™ Cultrex Poly-L-Lysine (Fisher Scientific) using the manufacturer's protocol. Plates were seeded with 180,000 cells per well (500 μL of 360,000 cells/mL in DMEM media supplemented with 10% FBS) and were allowed to incubate for 38 h at 37° C. with 5% CO2 (70-80% confluent). […] The cells were incubated under these conditions for 17 h at 37° C. with 5% CO2. […] Finally, the cells were stained under identical conditions supplemented with 10 μM CoxFluor (500 μL final volume containing 1.5% DMSO final concentration). After incubation at 37° C. with 5% CO2 for 4 h, each well was imaged using a Zeiss LSM 700 confocal microscope (n=3 technical replicates; n=4 biological replicates). Images were quantified over the entire imaging window, without any processing, using ImageJ (v. 1.51, NIH). All images were processed using identical parameters and false colored (LUT: jet.lut) in ImageJ.

[2] = system: horseradish peroxidase, bovine catalase, porcine esterase, human CYP2J2 (with cytochrome reductase), rat liver microsomes; assay: Enzyme selectivity panel (off-target activation); type: biochemical; details: 10-fold excess protein (1.01 U vs 0.101 U COX-2), CoxFluor 10 μM
Procedure: Enzyme Selectivity. Enzyme activity was defined as the amount substrate (μmol) consumed during one minute by one milligram of enzyme in 100 mM Tris-HCl at pH 8.0 under saturating conditions. Enzyme concentrations were measured using the BCA assay (Thermo Fisher Scientific) according to the published protocol with bovine serum albumin for the standard curve. COX-1 and COX-2 cyclooxygenase activities were measured using Strathkelvin oxygen electrode with arachidonic acid (200 μM). The oxygen electrode was calibrated using 1% sodium sulfite for 0% oxygen and atmosphere equilibrated 100 mM Tris-HCl at pH 8.0 for 100% oxygen. The reaction was monitored at 37° C. in a glass chamber with a total reaction volume of 1 mL. […]
Porcine esterase activity was measured spectroscopically at 405 nm using p-nitrophenyl acetate (1.5 mM) as the substrate. Bovine catalase activity was measured using a discontinuous Amplex® Red-horseradish peroxidase assay to quantify the amount of hydrogen peroxide (initially 31.25 μM) remaining after 0.5 h incubation with excitation at 540 nm and emission at 590 nm. CYP2J2 activity was measured spectroscopically at 340 nm using […] (3-fold excess), NADPH (1 mM), and arachidonic acid (70 μM) as the substrate. […]
Selectivity was assessed using 10-fold excess protein (350 μg/mL) and the solution was brought to a pH of 8.0 after 4 h with 0.5 M aq. […]

HEK 293T cells = assay: Cell viability (trypan blue exclusion and MTT) in HEK 293T cells; type: cell-based; details: 6 h incubation
Procedure: (§1) Trypan Blue Exclusion Cytotoxicity Assay. 6-well plates were seeded with 300,000 cells per well (2 mL of 150,000 cells/mL) and incubated at 37° C. with 5% CO2 for 48 to 72 h (˜60-80% confluent). Media was removed and replaced with either 5, 10, or 25 μM CoxFluor in fresh serum-free DMEM media (1.25% DMSO v/v final concentration). […] The trypsin was quenched with the addition of 1.8 mL DMEM media containing 10% FBS and the cells were mixed thoroughly before diluting 1:1 with trypan blue (0.4% in PBS w/v). Percent viability was measured using a Countess® II FL Automated Cell Counter (Thermo Fisher Scientific), where the parameters were optimized to identify live and dead cells. Viability was calculated by the relative to the vehicle control.
(§2) MTT Cytotoxicity Assay. […] The media was removed at various time points (3 or 6 h) and replaced with 200 μL 20:1 mixture of FBS-free DMEM and (3-(4,5-dimethylthiazol-2-yl)-2,5-diphenyl-tetrazolium bromide (MTT, 5 mg/mL stock in PBS). The cells were incubated for 4 h under the same conditions and then the medium was removed and replaced with DMSO (200 μL/well). The absorbance of each well was recorded after a 1:5 dilution in DMSO at 555 nm on a microplate reader. Viability was calculated by the absorbance relative to the vehicle control.

[3] = CoxFluor, Ctrl-CoxFluor & Resorufin stability assays; type: physicochemical; details: 8 hours at room temperature or 37° C., with or without ambient light
Procedure: CoxFluor, Ctrl-CoxFluor & Resorufin Stability Assays. Stability assays were performed for a 10 μM solution of each compound in a series of buffers/solvents (100 mM Tris-HCl at pH 8.0, DMEM with 10% FBS, DMEM without serum and DMSO). Stability was assessed at room temperature or at 37° C. and in the presence or absence of ambient light. Fluorescence was measured using the plate reader with excitation at 540 nm and emission from 560-700 nm and the relative turn-on was determined by the change of fluorescence intensity at 590 nm.

[4] = system: RAW 264.7 macrophage cells; assay: Cell viability (trypan blue exclusion and MTT) in RAW 264.7 macrophage cells; type: cell-based, mouse; details: 6 h incubation
Procedure: as §1, §2

SMILES: CCCCC/C=C\C/C=C\C/C=C\C/C=C\CCCC(=O)N1c2ccc(O)cc2Oc2cc(O)ccc21 [CoxFluor]
- fluorescent enhancement for LPS-stimulated cells relative to the control [1]: 1.2 fold
- selectivity against tested enzymes [2]: good selectivity
- cell viability (HEK 293T cells): suitable viability
- stability in Tris-HCl and DMEM buffer systems [3]: stable
- cell viability [4]: suitable viability
